# Experimental data published in ChEMBL document CHEMBL1151532, “Oxa-prostanoid analogs. Identification of an orally effective, dual thromboxane receptor antagonist /thromboxane synthase inhibitor” (Bioorg Med Chem Lett, 1994).
# Several values for one entry are separate records, joined by “and”; a condition that tells them apart may be missing. Equal values may be shown once.
# Experiments:
# Cavia porcellus = experiment: Ex vivo inhibition of […] induced guinea pig platelet aggregation after 1 hr post oral administration at a dose of 10 mg/kg; Aggregation ratio = EC50 for drug/EC50 for control; assay type: functional
# Thromboxane-A synthase = target: T1, Thromboxane-A synthase (Homo sapiens, UniProt P24557); experiment: In vitro inhibition against thromboxane synthase
# T1 sequence (P24557 whole entry): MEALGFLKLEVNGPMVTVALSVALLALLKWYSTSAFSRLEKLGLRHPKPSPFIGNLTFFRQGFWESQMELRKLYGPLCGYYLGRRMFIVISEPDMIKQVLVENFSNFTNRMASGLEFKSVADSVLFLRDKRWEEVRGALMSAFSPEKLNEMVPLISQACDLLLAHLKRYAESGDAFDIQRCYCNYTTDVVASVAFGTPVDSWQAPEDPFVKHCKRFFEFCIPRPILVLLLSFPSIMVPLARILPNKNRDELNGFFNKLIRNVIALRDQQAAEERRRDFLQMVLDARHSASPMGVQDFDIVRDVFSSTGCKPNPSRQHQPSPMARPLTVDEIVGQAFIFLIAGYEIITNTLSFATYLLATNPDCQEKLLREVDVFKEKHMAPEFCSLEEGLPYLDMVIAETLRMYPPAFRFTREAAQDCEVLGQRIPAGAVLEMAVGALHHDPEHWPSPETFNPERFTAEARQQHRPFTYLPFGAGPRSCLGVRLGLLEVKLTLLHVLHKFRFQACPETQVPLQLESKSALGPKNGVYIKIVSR
# [1] = In vitro thromboxane receptor antagonist against U-46619 induced aggregation of washed human platelets
Structure (SMILES),IC50 (Thromboxane-A synthase) [nM],other results
O=C(O)CCCCO/N=C(/c1cccnc1)c1cccc(C(F)(F)F)c1 [RIDOGREL],,Aggregation ratio (Cavia porcellus): 4.4
O=C(O)CC/C=C\CC[C@H]1[C@@H](OCc2ccc(-c3ccccc3)cc2)CO[C@@H]1c1cccnc1 (stereo in doubt; (-)),120,
O=C(O)CC/C=C\CC[C@H]1[C@@H](OCc2ccc(-c3ccccc3)cc2)CO[C@@H]1c1cccnc1 (stereo in doubt; 5),17,
O=C(O)CCC(CCCCNS(=O)(=O)c1ccc(Cl)cc1)CCCc1cccnc1 (stereo not given),,Aggregation ratio (Cavia porcellus): 24.5; IC50 [1]: 18 nM

# Second part, led by results:
IC50 (Thromboxane-A synthase) [nM],Structure (SMILES),other results
32,O=C(O)CC/C=C\CC[C@H]1[C@@H](OCc2ccc(-c3ccccc3)cc2)CO[C@H]1c1cccnc1,
22,O=C(O)CC/C=C\CC[C@@H]1[C@@H](c2cccnc2)OC[C@H]1OCc1ccc(-c2ccccc2)cc1,
4.3,O=C(O)CC/C=C\CC[C@H]1[C@@H](OCc2ccc(-c3ccccc3)cc2)CO[C@@H]1c1cccnc1 (stereo in doubt; (+)),Aggregation ratio (Cavia porcellus; 10 mg/kg): >100 and 65.6
65,O=C(O)CC/C=C\CC[C@H]1[C@H](OCc2ccc(-c3ccccc3)cc2)CO[C@H]1c1cccnc1,
